Data set [1] can be described thus: DPPH radical capture assay (antioxidant activity). The source says:
The antioxidant activity of EqA is dependent on the concentration of the pigment, the pH and the concentration of calcium. In the absence of calcium, the antioxidant activity is observed only at alkaline pH, but in the presence of calcium, the antioxidant activity is observed at alkaline pH and neutral pH, by the formation of stable semiquinone-calcium complexes (Levedeb et al., Archives of Biochemistry and Biophysics (2003) 413: 191-198). The invention is illustrated in the following examples:
The antioxidant activity of the purified extract and equinochrome A was evaluated by the DPPH radical capture assay (2, 2-diphenyl-1-picryihydracil) (Shankarlal et al., (2011) Am-Euras, J. Sci. Res. 6:178-181).

Data set [2] relates to E. coli. The experiment in a line: Antibacterial activity (MIC) against clinical isolates. The settings on record: Escherichia coli. The class given is cell-based. The source says:
(§1) In order to test the antibiotic activity of these compounds, the inventors studied the antibacterial activity, measured as minimum inhibitory concentration (MIC), of the black sea urchin (Tetrapygus niger) extract enriched in equinochrome A (85% purity) and the purified EqA.

For data set [3], the system named is Pseudomona aeruginosa. The data set is described as above. Type of data set: cell-based.
Excerpt: as §1

Data set [4] relates to S. aureus. Described as above. Type of data set: cell-based. The settings on record: Staphylococcus aureus, resistant to penicillin.
Excerpt: as §1

The subject of data set [5] is Klebsiella pneumoniae. The description is as above. Type of data set: cell-based. The settings on record: resistant to ampicillin, aztreonam, cephalothin, cefepime, cefotaxime, ceftazidime.
Excerpt: as §1

In data set [6] the test system is Klebsiella oxytica. The description is as above. The class given is cell-based. The settings on record: resistant to ampicillin.
Excerpt: as §1

The nature of data set [7]: Storage stability of the product. The class given is physicochemical. Conditions: stored at −20° C. The source says:
The process of the invention begins with spawning, which is induced by injection of KCl (0.5 M) into the perivisceral coelom. The induced urchin females are deposited on a smaller diameter vessel, which contains filtered and sterile seawater, where the eggs are received. The collected eggs are filtered, preferably using a fine sieve of pore size 1/32 inches (0.079375 centimeters) to remove impurities. Afterwards it is washed with filtered and sterile seawater. The excess water is subsequently removed by decanting the eggs. Then the eggs are dried at 60-80° C. for 24-72 hours, and are ground to a fine powder, which is cleaned by passing through a sieve of pore size 1/120 inches (0.021 centimeters). The product is then extracted by mixing the powder with methanol or ethanol at a proportion of 1:30 v/v under constant agitation. It is further filtered to remove the egg debris and evaporated under vacuum at 55° C. to 1/10 of the initial volume. The resulting extract is purified by chromatography with a C18 RP column, elution with 30-40% methanol to extract mainly spinochrome E, and finally an elution with 100% ethanol for the extraction of EqA.

Values after ≈ are worked out from the molar mass of the structure shown. Where two headings read alike, the source gives them in different places.

Usually EC50 stands for the concentration giving half of the maximal effect. The compound `Cc1c(C)c2c(c(C)c1O)CC[C@@](C)(CCC[C@H](C)CCC[C@H](C)CCCC(C)C)O2` [α-tocoferol, reference compound] yielded an EC50 in data set [1] of 100 µM.

For the compound `O=C1O[C@H]([C@@H](O)CO)C(O)=C1O` [ascorbic acid, reference compound], the half-maximal effective concentration (EC50) in data set [1] is 45 µM.

What is called MIC is the smallest concentration in the dilution series that meets the test's criterion for growth inhibition. Compound `CCc1c(O)c(O)c2c(c1O)C(=O)C(O)=C(O)C2=O` [EqA, 6-ethyl-2,3,5,7,8-pentahydroxy-1,4-naphthoquinone] came in with an EC50 in data set [1] of 13 µM. Moreover, the “antioxidant activity compared with reference antioxidants” value in data set [1] was “greater than the antioxidant activities of α-tocopherol and ascorbic acid”. For the same compound, the MIC in data set [2] (pH 5, pH 5, hemocultivo isolate, antibiotic resistance —) is 32 µg/mL (≈ 120 µM); in data set [2] (pH 5, pH 5, hemocultivo isolate, resistant to ampicillin, chloramphenicol, cotrimoxazole), 32 µg/mL (≈ 120 µM); in data set [2] (pH 5, pH 5, urine isolate, resistant to ampicillin, aztreonam, cefepime, cefotaxime, ceftazidime, ciprofloxacin) it was 32 µg/mL (≈ 120 µM); in data set [2] (pH 7, pH 7, hemocultivo isolate, antibiotic resistance —), > 64 µg/mL; in data set [2] (pH 7, pH 7, hemocultivo isolate, resistant to ampicillin, chloramphenicol, cotrimoxazole), > 64 µg/mL; in data set [2] (pH 7, pH 7, urine isolate, resistant to ampicillin, aztreonam, cefepime, cefotaxime, ceftazidime, ciprofloxacin) it was 64 µg/mL (≈ 240 µM). The MIC in data set [3] (pH 5, pH 5, aspirado traqueal isolate, resistant to ampicillin, aztreonam, cefepime, ceftazidime, imipenem, meropenem) was 32 µg/mL (≈ 120 µM); in data set [3] (pH 5, pH 5, aspirado traqueal isolate, resistant to ampicillin, aztreonam, ceftazidime, imipenem, meropenem), 64 µg/mL (≈ 240 µM); in data set [3] (pH 5, pH 5, aspirado traqueal isolate, resistant to ampicillin, ciprofloxacin, imipenem, meropenem) it was 32 µg/mL (≈ 120 µM); in data set [3] (pH 5, pH 5, cateter isolate, resistant to ampicillin, aztreonam, cefepime, ceftazidime, imipenem, meropenem) it was 32 µg/mL (≈ 120 µM); in data set [3] (pH 5, pH 5, hemocultivo isolate, resistant to cefepime, ceftazidime, ciprofloxacin, gentamicin), 32 µg/mL (≈ 120 µM); in data set [3] (pH 7, pH 7, aspirado traqueal isolate, resistant to ampicillin, aztreonam, cefepime, ceftazidime, imipenem, meropenem), > 64 µg/mL. Further, the MIC in data set [3] (pH 7, pH 7, aspirado traqueal isolate, resistant to ampicillin, aztreonam, ceftazidime, imipenem, meropenem) is > 64 µg/mL; in data set [3] (pH 7, pH 7, aspirado traqueal isolate, resistant to ampicillin, ciprofloxacin, imipenem, meropenem), > 64 µg/mL; in data set [3] (pH 7, pH 7, cateter isolate, resistant to ampicillin, aztreonam, cefepime, ceftazidime, imipenem, meropenem), > 64 µg/mL; in data set [3] (pH 7, pH 7, hemocultivo isolate, resistant to cefepime, ceftazidime, ciprofloxacin, gentamicin) it was > 64 µg/mL; in data set [4] (pH 5, pH 5, hemocultivo isolate (1st, r13)) it was 8 µg/mL (≈ 30.1 µM); in data set [4] (pH 5, pH 5, hemocultivo isolate (2nd, r14)), 8 µg/mL (≈ 30.1 µM). The MIC in data set [4] (pH 5, pH 5, hemocultivo isolate (3rd, r15)) was 8 µg/mL (≈ 30.1 µM); in data set [4] (pH 5, pH 5, hemocultivo isolate, oxacillin, erythromycin, clindamycin, ciprofloxacin), 32 µg/mL (≈ 120 µM); in data set [4] (pH 5, pH 5, isolate from tracheal aspirate) it was 8 µg/mL (≈ 30.1 µM); in data set [4] (pH 7, pH 7, hemocultivo isolate (1st, r13)) it was 32 µg/mL (≈ 120 µM); in data set [4] (pH 7, pH 7, hemocultivo isolate (2nd, r14)) it was 32 µg/mL (≈ 120 µM); in data set [4] (pH 7, pH 7, hemocultivo isolate (3rd, r15)) it was 32 µg/mL (≈ 120 µM). Further, the MIC in data set [4] (pH 7, pH 7, hemocultivo isolate, oxacillin, erythromycin, clindamycin, ciprofloxacin) is 32 µg/mL (≈ 120 µM); in data set [4] (pH 7, pH 7, isolate from tracheal aspirate) it was 32 µg/mL (≈ 120 µM); in data set [5] (Klebsiella pneumoniae, pH 5, urine isolate, ertapenem, nitrofurantoin, read-out: MIC), 64 µg/mL (≈ 240 µM); in data set [5] (Klebsiella pneumoniae, pH 7, urine isolate, ertapenem, nitrofurantoin, read-out: MIC) it was > 64 µg/mL; in data set [5] (pH 5, hemocultivo isolate, ciprofloxacin, chloramphenicol, colistin, cotrimoxazole, gentamicin), 64 µg/mL (≈ 240 µM); in data set [5] (pH 5, urine isolate, nitrofurantoin), 64 µg/mL (≈ 240 µM). Also, the MIC in data set [5] (pH 7, hemocultivo isolate, ciprofloxacin, chloramphenicol, colistin, cotrimoxazole, gentamicin) was >64 µg/mL; in data set [5] (pH 7, urine isolate, nitrofurantoin), >64 µg/mL; in data set [6] (pH 5, hemocultivo isolate), 64 µg/mL (≈ 240 µM); in data set [6] (pH 7, hemocultivo isolate) it was > 64 µg/mL. Further, the storage stability result in data set [7] is reported as “high stability for months”.

The record behind these values is patent publication US11007155B2, “Method for producing a sea urchin extract enriched with 1,4-polyhydroxylated naphthoquinones with antimicrobial and antioxidant activity” (Universidad Técnica Federico Santa María, priority 2016, dated 2021).
